Converted amounts (≈) assume the structure as drawn.
Experiments:
[1] = test system: Staphylococcus aureus ATCC 33591; test: MIC, broth microdilution, S. aureus ATCC 33591 (MRSA); assay type: cell-based; conditions: read-out: minimum inhibitory concentration (MIC)
Protocol: (§1) Antimicrobial Effect: Minimum Inhibitory Concentration (MIC) of a Test Compound Against Isolates of Staphylococcus aureus. The Minimum inhibitory concentration (MIC) of compounds of the presently-disclosed subject matter including a bone active portion (RA) derived from an antimicrobial agent, and free antimicrobial agents, were determined by Ricerca Biosciences LLC (Concord, Ohio) using the standard in vitro broth microdilution assay (CLSI). Two isolates of S. aureus, one resistant to Methicillin (ATCC 33591) and one nonresistant to Methicillin (ATCC 49230) were used for the evaluation. ATCC 49230 is a clinical isolate from a patient with chronic osteomyelitis. Additionally, a quality control isolate (ATCC 29213) was included in the analysis. Briefly, twelve, serial, one-half dilutions of compounds of the presently-disclosed subject matter including a bone active portion (RA) derived from an antimicrobial agent, and free antimicrobial agents, were prepared in 96-well plates in Mueller Hinton Broth (MHB). The highest concentration of each compound used was 64 μg/mL. Bacterial suspensions were prepared and added to each well at a concentration of approximately 5×10^5 colony-forming-units per milliliter. The inoculated plates were incubated for 16-20 h at 35±1° C. At the completion of incubation, the wells of each plate were evaluated visually for the presence of bacterial growth. […]

[2] = test system: Staphylococcus aureus ATCC 29213; conditions: ATCC 29213, QC strain, acceptance range; cited from earlier work
[3] = test system: Staphylococcus aureus ATCC 29213; test: MIC, broth microdilution, S. aureus ATCC 29213 (QC strain); assay type: cell-based; conditions: ATCC29213, read-out: minimum inhibitory concentration (MIC)
Protocol: as §1

[4] = test system: Staphylococcus aureus ATCC 49230; test: MIC, broth microdilution, S. aureus ATCC 49230; assay type: cell-based; conditions: ATCC49230, read-out: minimum inhibitory concentration (MIC)
Protocol: as §1

[5] = test system: SUM1315 human breast cancer cells; test: Anti-cancer effect: colony formation assay; assay type: cell-based; conditions: 0.05, 0.1, 0.5, 1, 5, and 10 μM, 10 days
Protocol: Anti-Cancer Effect: Colony formation assay. The anti-cancer effect of compounds including a bone active portion (RA) derived from an anti-cancer agent was tested. SUM1315 human breast cancer cells (derived from a clinical metastatic nodule) were seeded in 6 well plates at 5000 cells/well in 2 ml of medium. Cells were allowed to adhere overnight prior to drug treatment. Compounds of the presently-disclosed subject matter including a bone active portion (RA) derived from an anti-cancer agent, or the free anti-cancer agent, were added to the cells at concentrations of 0.05, 0.1, 0.5, 1, 5, and 10 μM and cells were allowed to grow at 37° C. for 10 days. In addition, untreated and vehicle (0.1% DMSO) treated wells were included as controls. After 10 days of treatment, medium was removed from each well and cells were subsequently washed with water. Cells were then fixed in 10% formaldehyde for 10 minutes, washed with water and then stained with 0.5% crystal violet for 5 minutes. Colonies of cells were subsequently counted under the microscope in three separate frames. Three independent experiments were performed and the results are an average of the three experiments. Images were obtained from a representative well for each concentration.

[6] = Hydroxyapatite (HA) Binding Assay; conditions: 10^−5 M analyte, 50 mM Tris-HCl pH 7.4, 1% DMSO; adjusted such that tetracycline = 100
Protocol: A Hydroxyapatite (HA) Binding Assay is used to determine whether compounds have an affinity for bone. Compounds of the presently-disclosed subject matter having a Bone Targeting Portion (RT) are studied using the HA Binding Assay. A 10^−3 M solution of each analyte was made in 100% dimethylsulfoxide (DMSO). A 100 fold dilution was then made to form a 10^−5 M solution in 50 mM Tris-HCl buffer, pH 7.4, 1% DMSO. Tetracycline was used as a reference analyte and approximately 50% was adsorbed to HA at the concentration of 10^−5 M. The HA slurry was 0.5 g/100 mL 50 mM Tris-HCl buffer, 1% DMSO.
For each analyte, two samples were prepared. For one sample, 1 mL of 10^−5 M analyte and 100 μL 50 mM Tris-HCl buffer, 1% DMSO was pipetted into a microcentrifuge tube. For the second sample, 1 mL of 10^−5 M analyte and 100 μL of the HA slurry was pipetted into a microcentrifuge tube. The samples were mixed gently by inversion for 4 minutes and then centrifuged at 12,000 g for 3 minutes to sediment the HA contained in those samples. The supernatant was transferred to another microcentrifuge tube.
An electronic spectral scan (ultraviolet-visible) from 220-520 nm was obtained for each analyte using a Varian Cary 300 Bio Scan. The blank was 50 mM Tris-HCl buffer, 1% DMSO. The wavelength of maximum absorbance (λmax) was determined, and the extinction coefficient (ε) was calculated using the Beer-Lambert Law.
The absorbance of the samples incubated with HA was measured at λmax, and the molar concentration of the analyte was then determined using the Beer-Lambert Law and the previously calculated extinction coefficient. The fraction adsorbed to HA for each sample was subsequently calculated.

[7] = test system: SUM1315 human breast cancer cells; test: Anti-cancer effect: cell proliferation (MTT) assay; assay type: cell-based; conditions: 0.05, 0.1, 0.5, 1, 5, and 10 μM, days 1-6
Text: Anti-Cancer Effect: Cell Proliferation Assay. The colorometric MTT assay is based on the cleavage of a yellow MTT tetrazolium salt to form purple formazan crystals by the mitochondria of metabolically active and viable cells. The formazan crystals are insoluble in aqueous solution but can be dissolved in acid and quantified using a spectrophotometer. The number of living and viable cells in a sample directly correlates to the amount of purple formazan crystals formed. SUM1315 human breast cancer cells were seeded in triplicate in 96 well plates at 1000 cells/well and were allowed to adhere overnight prior to drug treatment. Compounds of the presently-disclosed subject matter including a bone active portion (RA) derived from an anti-cancer agent, or the free anti-cancer agent, were added to the cells at concentrations of 0.05, 0.1, 0.5, 1, 5, and 10 μM and cells were allowed to grow at 37° C. for 1, 2, 3, 4, 5, or 6 days. In addition, untreated and vehicle (0.1% DMSO) treated wells were included at each time point as controls. Following treatment the MTT assay was subsequently performed and the absorbance at 490 nm was recorded. Three independent experiments were performed and the results were averaged.

Compound: CN[C@H](CC(C)C)C(=O)N[C@H]1C(=O)N[C@@H](CC(N)=O)C(=O)N[C@H]2C(=O)N[C@H]3C(=O)N[C@H](C(=O)N[C@H](C(=O)O)c4cc(O)cc(O)c4-c4cc3ccc4O)[C@H](O)c3ccc(c(Cl)c3)Oc3cc2cc(c3O[C@@H]2O[C@H](CO)[C@@H](O)[C@H](O)[C@H]2O[C@H]2C[C@](C)(N)[C@H](O)[C@H](C)O2)Oc2ccc(cc2Cl)[C@H]1O [vancomycin]
- MIC [1]: 1 µg/mL (≈ 0.69 µM)
- acceptable vancomycin MIC range [2]: ^cQC strain: Acceptable vancomycin MIC range: 0.5-2 μg/mL
- MIC [3]: 1 µg/mL (≈ 0.69 µM)
- MIC [4]: 1 µg/mL (≈ 0.69 µM)

Compound: COc1cccc2c1C(=O)c1c(O)c3c(c(O)c1C2=O)C[C@@](O)(C(=O)CO)C[C@H]3OC1C[C@H](NC(=O)CCCC(=O)NCCOCCOCC(=O)Nc2ccc(OC)c(C(N)=O)c2O)[C@H](O)[C@H](C)O1 (stereo partly shown) [Formula 138]
- colony formation [5]: dose-responsive decrease in colony formation
- Binding Index (binding to hydroxyapatite) [6]: 60
- cell proliferation (MTT) [7]: dose-responsive decrease in cell proliferation

Reference: US8071575B2, “Methods and compounds for the targeted delivery of agents to bone for interaction therewith” (priority 2007, dated 2011)
